Assay results reported in paper PMC3914206.

Columns and labels:
panel of 442 kinases [1] = biological target: T1, panel of 442 kinases (Homo sapiens, UniProt Q9UL54); type: binding; details: kinase TAOK2; compound concentration 10 µM
T1 construct: purchased KINOMEscan
T1 sequence (Q9UL54 1-1235): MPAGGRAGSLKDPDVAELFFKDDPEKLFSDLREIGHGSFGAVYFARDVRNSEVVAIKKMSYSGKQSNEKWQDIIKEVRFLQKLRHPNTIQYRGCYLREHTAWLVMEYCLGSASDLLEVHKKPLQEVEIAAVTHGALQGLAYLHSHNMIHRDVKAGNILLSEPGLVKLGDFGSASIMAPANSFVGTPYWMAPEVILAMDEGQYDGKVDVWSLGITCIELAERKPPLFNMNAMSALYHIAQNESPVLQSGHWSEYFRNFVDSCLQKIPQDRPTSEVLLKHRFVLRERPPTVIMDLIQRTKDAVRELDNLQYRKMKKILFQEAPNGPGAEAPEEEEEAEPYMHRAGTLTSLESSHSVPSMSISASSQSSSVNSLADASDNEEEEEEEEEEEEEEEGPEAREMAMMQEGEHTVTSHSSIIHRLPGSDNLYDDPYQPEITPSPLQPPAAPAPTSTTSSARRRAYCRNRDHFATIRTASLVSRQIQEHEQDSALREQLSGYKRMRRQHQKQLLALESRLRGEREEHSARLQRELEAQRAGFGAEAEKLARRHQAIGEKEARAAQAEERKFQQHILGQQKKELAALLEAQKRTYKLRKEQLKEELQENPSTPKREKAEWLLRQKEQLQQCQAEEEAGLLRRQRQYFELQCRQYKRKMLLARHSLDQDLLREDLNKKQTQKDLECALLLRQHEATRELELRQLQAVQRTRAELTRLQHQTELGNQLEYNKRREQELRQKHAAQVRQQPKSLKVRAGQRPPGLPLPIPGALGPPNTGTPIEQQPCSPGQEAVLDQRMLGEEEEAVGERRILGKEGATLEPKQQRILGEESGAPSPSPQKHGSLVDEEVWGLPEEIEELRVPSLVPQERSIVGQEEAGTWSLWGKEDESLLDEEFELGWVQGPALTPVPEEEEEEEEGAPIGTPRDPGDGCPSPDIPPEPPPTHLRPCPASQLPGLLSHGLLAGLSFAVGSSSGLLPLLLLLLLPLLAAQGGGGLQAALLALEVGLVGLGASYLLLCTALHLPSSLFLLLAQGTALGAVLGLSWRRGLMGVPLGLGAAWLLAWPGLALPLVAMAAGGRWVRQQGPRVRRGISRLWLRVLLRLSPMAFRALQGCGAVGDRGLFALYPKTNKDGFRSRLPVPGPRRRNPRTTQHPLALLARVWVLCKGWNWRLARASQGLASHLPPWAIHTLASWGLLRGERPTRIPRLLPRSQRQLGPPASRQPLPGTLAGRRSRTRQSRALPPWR
Excerpt: (§1) We assessed the selectivity of members of this scaffold using the KINOMEscan methodology across a near comprehensive panel of 442 kinases [[18,27]].

panel of 442 kinases [2] = biological target: T2, panel of 442 kinases (Homo sapiens, UniProt P78356); type: binding; details: Compound Concentration 10 µM
T2 construct: purchased KINOMEscan
T2 sequence (P78356 1-416): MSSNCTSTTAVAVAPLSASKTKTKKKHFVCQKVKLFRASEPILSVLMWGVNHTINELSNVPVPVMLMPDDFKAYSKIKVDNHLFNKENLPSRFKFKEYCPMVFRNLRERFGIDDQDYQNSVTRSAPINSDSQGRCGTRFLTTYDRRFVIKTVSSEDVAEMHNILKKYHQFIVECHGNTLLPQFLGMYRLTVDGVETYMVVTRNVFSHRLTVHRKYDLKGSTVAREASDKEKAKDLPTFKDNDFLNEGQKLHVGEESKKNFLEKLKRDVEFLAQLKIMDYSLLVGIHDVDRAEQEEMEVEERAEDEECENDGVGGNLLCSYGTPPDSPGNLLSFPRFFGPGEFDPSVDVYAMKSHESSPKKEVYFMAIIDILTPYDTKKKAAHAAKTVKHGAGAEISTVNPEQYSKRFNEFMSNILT
Excerpt: as §1

Compound	% Ctrl, TAOK2 (panel of 442 kinases [1])	KINOMEscan: PIP5K2B (panel of 442 kinases [2])
COc1cc(C(=O)N2CCC(N3CCN(C)CC3)CC2)ccc1Nc1ncc2c(n1)N1CCc3cccc(c31)C(=O)N2C [Compound 24]	100 % Ctrl	–
CCOc1cc(C(=O)N2CCC(N3CCN(C)CC3)CC2)ccc1Nc1ncc2c(n1)N(C1CCCC1)c1ccccc1C(=O)N2C [Compound 26]	78 % Ctrl	100
COc1cc(C(=O)N2CCC(N3CCN(C)CC3)CC2)ccc1Nc1ncc2c(n1)N(C1CCCC1)c1ccccc1C(=O)N2C [Compound 25, 11-cyclopentyl-2-((2-methoxy-4-(4-(4-methylpiperazin-1-yl)piperidine-1-carbonyl)phenyl)amino)-5-methyl-5H-benzo[e]pyrimido[5,4-b][1,4]diazepin-6(11H)-one]	74 % Ctrl	100
COc1cc(C(=O)N2CCC(N3CCN(C)CC3)CC2)ccc1Nc1ncc2c(n1)N(C)c1ccccc1C(=O)N2C [15 (LRRK2-IN-1)]	65 % Ctrl	100
